Source: a melting point compilation (Tetko et al.; mined from patent text by program, amines drawn as free bases though some values may be those of a salt)

SMILES | melting point
COc1ccc(-c2cc3ccccc3[nH]2)cc1OC | 188 °C
Nc1ccccc1Oc1ccccc1-c1ccccc1Oc1ccccc1N | 175 °C
CCCNc1c(CN)cnc2cn[nH]c12 | 97 to 100 °C
CC(C)(C)c1cc(CN(C=O)n2ccnc2)cc(C(C)(C)C)c1O | 167 °C
Cc1c(CC=CN2CCN3c4cc(F)ccc4CCC3C2)cnn1-c1cc(N(C)C)nc(N)n1 (stereo not given) | 205 °C
O=c1[nH]c2ncc(-c3ccc(-c4cn[nH]c4)cc3)nc2n1CC1CCCCC1 | 305 to 307 °C
CCCc1c(OCC#CCCCC(=O)NCCCCc2cccnc2)ccc(C(C)=O)c1O | 77 to 80 °C
C[C@@H](N(CC(=O)O)C(=O)c1ccc(C(F)(F)F)cc1F)[C@](O)(Cn1cncn1)c1ccc(F)cc1F (relative stereo) | 191 to 192 °C
CSC1c2ccccc2COc2ccc(C(=O)O)cc21 (stereo not given) | 198 to 200 °C
CN1C(=O)C2C3CCC(C3)C2(c2ccc(F)c(F)c2)C1=O (stereo not given) | 96 to 100 °C
COc1ccc(C2C(Oc3ccccc3)C(=O)N2c2cc(OC)c(OC)c(OC)c2)cc1O (stereo not given) | 176 to 180 °C
CN(C)Nc1nc(Cl)nc2c1ncn2C1OC(CCl)C(O)C1O (stereo not given) | 188 to 189 °C
CSc1ncc2ccc(=O)n(C)c2n1 | 192 to 193 °C
C#CCS(=O)(=O)c1cccc([N+](=O)[O-])c1 | 250 to 255 °C
O=C(O)Cc1cccc(C(=O)c2ccc(OCc3ccc4ccccc4c3)cc2)c1 | 150 to 152 °C
OP(O)C1(NC(c2ccccc2)c2ccccc2)CCCCC1 | 194 to 196 °C
Cc1ccc(N2CCN([C@@H](Cc3ccc(OCCc4nc(-c5ccccc5)oc4C)c(Br)c3)C(=O)O)CC2)cc1 | 203 to 205 °C
CCOC(=O)C1CCN(c2cc(-n3c(=O)cc(C(F)(F)F)[nH]c3=O)c(F)cc2C#N)CC1 | 124 °C
COc1ccc(-c2ccc3nnn(Cc4ccc5ncccc5c4)c3n2)cc1 | 144 to 146 °C
Cc1c(Cl)cccc1S(=O)(=O)Nc1ccc2ncncc2c1 | > 270 °C
CCNC(=O)Nc1cc(-c2c(-c3ccc(F)c(C)c3)nc3c(C)cc(Cl)nn23)ccn1 | 229 to 230 °C
CS(=O)(=O)c1ccc(-n2nccc2-c2ccc(Br)cc2)cc1F | 155 to 156 °C
O=C1CN(Cc2ccccc2)CC2c3ccccc3CCCN12 (stereo not given) | 125 to 128 °C
CN(C)CC(O)c1cc(C(F)(F)F)nc2c(C(F)(F)F)cccc12 (stereo not given) | 80 to 80.7 °C
N#Cc1c(Cl)ccc(Cl)c1Cl | 117 to 119 °C

SMILES | melting point
CCCN(CCC)Cc1nc(-c2ncn3c2CN(C)C(=O)c2c-3cccc2C(F)(F)F)no1 | 216 to 218 °C
CCCCCCCCOc1ccc(-c2ccc(O)c(F)c2F)cc1 | 145 °C
CC1OC(O)(Cl)CC(NC(=O)C(F)(F)F)C1(O)OC(=O)C(F)(F)F (stereo not given) | 132 to 134 °C
CC(C)(C)OC(=O)N[C@@H](Cc1ccc(O)cc1)C(=O)NCCCN1CCN(CCCNc2cccc3c2C(=O)c2ccccc2C3=O)CC1 | 102 °C
CC1=NN=C(C=Cc2ccc(C(F)(F)F)cc2)c2cc3c(cc2C1)OCO3 | 188 to 191 °C
COc1ccccc1COc1cc2c(cc1OC)C(=O)N(Cc1ccccc1OC)CC2 | 133 to 134 °C
Cc1cc(-c2nnn(C)n2)cc(C)c1OCCCC(N)=O | 155 to 156 °C
CC(C)[C@H](NC(=O)OCc1ccccc1)C(N)=O | 206 °C
O=C(O)CCCCCN1C(=O)c2ccc([N+](=O)[O-])cc2C1=O | 140 °C
Cc1nc2c(C#N)ncn2c(Cl)c1-c1c(F)cc(F)cc1F | 183 °C
CCOC(=O)c1nc(NC(C)=O)sc1Cc1ccc(SC)cc1 | 205 to 206 °C
CCCCOc1cc(/C=C(\OCC)C(=O)O)ccc1OCCc1ccc(N(C)S(=O)(=O)CCCC)cc1 | 144 °C
O=C(O)c1cccc(C[C@@H]2COc3ccc(OCc4ccccn4)cc3[C@@H]2O)c1 (relative stereo) | 196 to 198 °C
O=c1[nH]c(=O)n(CCCCBr)c2ccc(Cl)cc12 | 154 to 156 °C
CC(C)(C)OC(=O)NCc1ccc(C(=O)Nc2ccccc2N)cc1 | 160 to 162 °C
O=C(O)c1cc2cc(CCNS(=O)(=O)c3ccc(Cl)cc3)ccc2o1 | 193 to 195 °C
NC(=S)N1CCSC1c1ccccc1OCCN1CCN(c2cccc(F)c2)CC1 (stereo not given) | 136 to 137 °C
COC(=O)c1cc(-c2ccccc2)c(=O)n2c1-c1sccc1CN2C(C)=O | 132 to 134 °C
CN(CC1CCCCN1)C(=O)c1cc(OCC(F)(F)F)ccc1OCC(F)(F)F (stereo not given) | 104 to 107 °C
CC(c1ccccc1)N1c2ccccc2Oc2ccccc21 (stereo not given) | 100 °C
CC(C)c1cc(C(=O)Nc2ccc(C(=O)O)s2)oc1C(C)C | 227 to 228 °C
C#CCOC(=O)c1ccc(O)cc1 | 82 to 84 °C
[N-]=[N+]=NC1(CO)OC(n2ccc(=O)[nH]c2=O)C(O)C1O (stereo not given) | 86 to 93 °C
O=C(Nc1cc([N+](=O)[O-])cc([N+](=O)[O-])c1)C1CC1 | 147 to 149 °C
Cc1cccc(N(c2ccccc2)c2ccc(-c3ccc(-c4ccc(N(c5ccccc5)c5cccc(C)c5)cc4)cc3)cc2)c1 | 189 to 190 °C

SMILES | melting point
O=C(Nc1ccccc1)c1nc2ccccc2[nH]1 | 201 to 202 °C
Cc1ccc(NC(=O)c2cc(Cl)ccc2NCC2CCN(C3CCCC3)CC2)nc1 | 150 to 152 °C
Cc1ccc(N(c2ccc(C)cc2)c2c(F)cc(F)c(F)c2F)cc1 | 95 °C
COC(=O)c1ccc(NC(=O)C(CC2CCCC2)c2ccc(N)cc2)nc1 (stereo not given) | 65 to 68 °C
N#Cc1ccc(C(=C2CCOC2=O)n2ccnc2)cc1 | 194 to 197 °C
COC(=O)c1cc(Oc2ccc([N+](=O)[O-])cc2)cc(Oc2ccc([N+](=O)[O-])cc2)c1 | 180 to 182 °C
CCCCS(=O)(=O)N(C(=O)OC(C)(C)C)c1cc(O)ccc1OCc1ccccc1 | 131 to 133 °C
CP(C)(=O)C(O)C(N)=O (stereo not given) | 155 °C
Nc1cccc2c1OC1(CC1)C2=O | 136 °C
O=c1c2cc(F)c(Cl)nc2n(-c2ccccc2F)c(=O)n1OCc1ccccc1 | 199 to 200 °C
Clc1ccc(C2=NNCC2c2ccccc2)cc1 (stereo not given) | 156 to 162 °C
Cc1nc(-c2cccc(NC(=O)N3CCc4c(cnc5[nH]ncc45)C3)c2)no1 | > 140 °C
CC(C)C[C@@H](C(=O)OCc1ccccc1)N1C(=O)[C@@H](N2C(=O)OC[C@@H]2c2ccccc2)[C@H]1CCc1ccccc1 | 138 to 140 °C
COC1(OC)CN(c2c(F)cc3c(=O)c(C(=O)O)cn(C4CC4)c3c2F)CC1C (stereo not given) | 214 to 216 °C
COC(=O)CCCC#Cc1nc(C(F)(F)F)ccc1N | 49 °C
NC(=O)N(O)CC1=CCC(c2ccccc2)CC1 (stereo not given) | 142 to 143 °C
CCCCCCCCC(SCCCCCC)C(=O)Nc1c(SC)cc(NC(C)=O)c2ncc(C)cc12 (stereo not given) | 128 to 131 °C
COC12CC(C)(C)C(O1)C(OC(=O)c1ccc(N)cc1)C=C2C (stereo not given) | 118 to 119 °C
O=c1oc(-c2cccc(C(F)(F)F)c2)nc2cccc(Cl)c12 | 116 to 120 °C
CCc1cc(-c2[nH]c3ccccc3c2C)cc(CC)c1OC | 95.7 to 96.1 °C
O=C(O)CCCCCCCCc1ccc(Cl)cc1 | 73 to 75 °C
O=C(O)C(CCN1C(=O)c2ccccc2C1=O)Oc1ccc(-c2ccc(-c3c(Cc4ccccc4)oc4ccccc34)cc2)cc1 (stereo not given) | 182 to 184 °C
CC(=O)N[C@H]1CC[C@H](ON2C(=O)c3ccccc3C2=O)CC1 | 210 to 213 °C
O=[N+]([O-])c1ccc(OC[C@@H]2CCCN2c2ccc3ccccc3n2)cc1 | 118 to 120 °C
CC(=O)Nc1cccc(-n2ncc(=O)n(Cc3ccc(Cl)cc3F)c2=O)c1 | 184 °C

SMILES | melting point
COC(=O)c1cccc2c1NCC2 | 70 to 73 °C
CCC(C)(C)c1cc(C(=O)O)c(O)c(C(C)(C)CC)c1 | 132 to 133 °C
COC(=O)C1=C(C)NC(C)=C(/C=C/S(=O)(=O)N(C)Cc2ccccc2)C1c1cccc([N+](=O)[O-])c1 (stereo not given) | 208 to 210 °C
Oc1cc(O)c2cc(-c3cc(F)cc(F)c3)oc2c1 | 208 to 209 °C
NS(=O)(=O)c1ccc(-n2nc(C(F)(F)F)cc2-c2ccc(Cl)cc2)cc1F | 140 to 141 °C
CC(=O)Nc1cc(Br)nn1-c1c(Cl)cc(C(F)(F)F)cc1Cl | 180 to 187 °C
O=C1CCC2=C(CCc3cccc(F)c32)N1 | 199 °C
CN(C)c1cccc(OCC(=O)c2cccc(Cl)c2)c1 | 101 to 103 °C
Cc1nc2c(C)cccn2c(=O)c1CCN1CCC(c2noc3cc(F)ccc23)CC1 | 200 °C
C#CCOc1cc(-c2cc(C)c(C(F)(F)F)n(C)c2=O)c(F)cc1Cl | 107 to 108 °C
Cc1cccc(C)c1C(=O)OCC(N)=O | 106 to 108 °C
O=c1cc(Sc2ccc(O)cc2)oc2cc(O)cc(O)c12 | 249 to 251 °C
Cc1cccc(NC(=O)NC2N=C(CC(C)C)c3cccc(C)c3N(CC(=O)N3CC4CCC(CC4)C3)C2=O)c1 (stereo not given) | 134 to 135 °C
Cc1ccc(N2C(=O)c3ccccc3C2O)nn1 (stereo not given) | 232 °C
Nc1ccc(-c2nc3ccccc3s2)cc1Br | 160 to 161 °C
O=C(O)CCCCCN1CCN2c3ccccc3Cc3ccccc3C2C1 (stereo not given) | 181 to 182 °C
CC1(C(O)=Nc2cc(Cl)cc(Cl)c2)CC(F)C1(C)C(=O)O (stereo not given) | 122 to 123 °C
NC(=O)c1nn(C2OC(CO)C(O)C2O)nc1C(N)=O (stereo not given) | 210 to 212 °C
CC(C)COc1ccccc1Nc1ncc(C(=O)O)c(=O)[nH]1 | 213 to 215 °C
COc1cc(C#N)c2c(c1OC)C(=O)CC2 | 150 °C
CN(C)C=C1C(=O)OC(=O)c2ccccc21 | 137 to 140 °C
COC(=O)c1cccc2[nH]c(=O)n(Cc3ccc(-c4ccccc4C#N)cc3)c12 | 250 to 253 °C
CC(OC1(c2ccccc2F)NOc2c(Cl)cccc21)C(=O)O (stereo not given) | 159 to 161 °C
CCN1CCCC1CNC(=O)c1cc(Cl)c(O)cc1OC (stereo not given) | 185 to 186 °C
COc1cc2nc3ccc(SC)cc3sc-2cc1=O | 222 to 224 °C
